These results are taken from patent US8063072B2 (Roche Palo Alto LLC, priority 2009, dated 2011).

One series has as its system HCV. The settings on record: cited from earlier work.
Series [1] has as its target T1, HCV polymerase (NS5B570n-Con1) (Hepatitis C virus genotype 1b, UniProt Q9WMX2).
T1 construct: contains a 21 amino acid deletion at the C-terminus relative to the full-length HCV polymerase; 6-histidine (His6) (N); made in house; host or cells: E. coli BL21(DE) pLysS, plasmid pET17b
The experiment in a line: HCV NS5B RNA polymerase activity. The format is biochemical, HCV Con1 strain. Here is the method:
The enzymatic activity of HCV polymerase (NS5B570n-Con1) was measured as the incorporation of radiolabeled nucleotide monophosphates into acid insoluble RNA products. Unincorporated radiolabeled substrate was removed by filtration and scintillant was added to the washed and dried filter plate containing radiolabeled RNA product. The amount of RNA product generated by NS5B570-Con1 at the end of the reaction was directly proportional to the amount of light emitted by the scintillant.
The N-terminal 6-histidine tagged HCV polymerase, derived from HCV Con1 strain, genotype 1b (NS5B570n-Con1) contains a 21 amino acid deletion at the C-terminus relative to the full-length HCV polymerase and was purified from E. coli strain BL21(DE) pLysS. The construct, containing the coding sequence of HCV NS5B Con1 (GenBank accession number AJ242654) was inserted into the plasmid construct pET17b, downstream of a T7 promoter expression cassette and transformed into E. coli. A single colony was grown overnight as a starter culture and later used inoculate 10 L of LB media supplemented with 100 μg/mL ampicillin at 37° C. Protein expression was induced by the addition of 0.25 mM isopropyl-β-D-thiogalactopyranoside (IPTG) when optical density at […] of the culture was between 0.6 and 0.8 and cells were harvested after 16 to 18 h at 30° C. NS5B570n-Con1 was purified to homogeneity using a three-step protocol including subsequent column chromatography on Ni-NTA, SP-Sepharose HP and Superdex 75 resins.
Each 50 μL enzymatic reaction contained 20 nM RNA template derived from the complementary sequence of the Internal Ribosome Entry Site (cIRES), 20 nM NS5B570n-Con1 enzyme, 0.5 μCi of tritiated UTP (Perkin Elmer catalog no. TRK-412; specific activity: 30 to 60 Ci/mmol; stock solution concentration from 7.5×10^-5 M to 20.6×10^-6 M), 1 μM each ATP, CTP, and GTP, 40 mM Tris-HCl pH 8.0, 40 mM NaCl, 4 mM DTT (dithiothreitol), 4 mM MgCl2, and 5 μl of compound serial diluted in DMSO. Reaction mixtures were assembled in 96-well filter plates (cat #MADVNOB, Millipore Co.) and incubated for 2 h at 30° C. Reactions were stopped by addition of 10% final (v/v) trichloroacetic acid and incubated for 40 min at 4° C. Reactions were filtered, washed with 8 reaction volumes of 10% (v/v) trichloroacetic acetic acid, 4 reaction volumes of 70% (v/v) ethanol, air dried, and 25 μl of scintillant (Microscint 20, Perkin-Elmer) was added to each reaction well.
The amount of light emitted from the scintillant was converted to counts per minute (CPM) on a Topcount® plate reader (Perkin-Elmer, Energy Range: Low, Efficiency Mode: Normal, Count Time: 1 min, Background Subtract: none, Cross talk reduction: Off).
Data was analyzed in Excel® (Microsoft) and ActivityBase® (Idbs®). The reaction in the absence of enzyme was used to determine the background signal, which was subtracted from the enzymatic reactions. Positive control reactions were performed in the absence of compound, from which the background corrected activity was set as 100% polymerase activity. All data was expressed as a percentage of the positive control. The compound concentration at which the enzyme-catalyzed rate of RNA synthesis was reduced by 50% (IC50) was calculated by fitting equation (i) to the data where“Y”
[formula] corresponds to the relative enzyme activity (in %), “% Min” is the residual relative activity at saturating compound concentration, “% Max” is the relative maximum enzymatic activity, “X” corresponds to the compound concentration, and “S” is the Hill coefficient (or slope).

The test system of series [2] is genotype 1b replicon in HCV replicon cells (2209-23). Briefly: HCV replicon assay (Renilla luciferase reporter). The class given is cell-based, HCV genotype 1b. The conditions noted are these: Hepatitis C virus, 72 h; cell line 2209-23, three days incubation, luciferase readout. (Replicon systems follow genome replication, usually without infectious particles.)
A further series can be described thus: in vitro. The conditions noted are these: human.

In the case of `NC(=O)c1ncn([C@@H]2O[C@H](CO)[C@@H](O)[C@H]2O)n1` [ribavirin, 1-((2R,3R,4S,5R)-3,4-Dihydroxy-5-hydroxymethyl-tetrahydro-furan-2-yl)-1H-[1,2,4]triazole-3-carboxylic acid amide], the “effect on serum levels of HCV-RNA” value in the series on HCV (monotherapy / sole treatment) is “does not lower serum levels of HCV-RNA”. Also, the “patients with serum amino transferase levels reduced to normal” value with HCV (monotherapy) is given as 40%.

By IC50 is commonly meant the concentration that gives 50% inhibition. A high value points to lower potency. As a reminder, the melting point is the temperature, or range, at which the solid turns liquid. On to `CC(C)(C)c1nc(/C=C/c2ccc(NS(C)(=O)=O)cc2)cc(-c2ccc[nH]c2=O)n1` [Compound I-7, N-(4-{(E)-2-[2-tert-Butyl-6-(2-oxo-1,2-dihydro-pyridin-3-yl)-pyrimidin-4-yl]-vinyl}-phenyl)-methanesulfonamide], for which the melting point was 271 to 273 °C. Moreover, in series [1], the half-inhibitory concentration (IC50) was 10 nM.

Molecule `CC(C)(C)c1cc(/C=C/c2ccc(NS(C)(=O)=O)cc2)c(O)c(-c2ccc[nH]c2=O)n1` [Compound I-2, N-{4-[(E)-2-(6-tert-Butyl-3-hydroxy-2′-oxo-1′,2′-dihydro-[2,3′]bipyridinyl-4-yl)-vinyl]-phenyl}-methanesulfonamide] came in with a melting point of 178 to 180 °C. Moreover, in series [1], the 50% inhibitory concentration (IC50) was found to be 177 nM.

Take `CC(C)(C)c1cc(/C=C/c2ccc(NS(C)(=O)=O)cc2)cc(-c2ccc[nH]c2=O)n1` [Compound I-1]: the melting point was in the range of 258 to 260 °C. The molecule further gave an IC50 in series [1] of 4 nM. The molecule also showed an IC50 in series [2] of 108 nM. The molecule further registered a CC50 in the series “in vitro” of 15100 nM.

`CC(C)(C)c1cc(C(=O)N[C@H]2CC[C@H](NS(C)(=O)=O)CC2)c(C#N)c(-c2ccc[nH]c2=O)n1` [Compound I-5, 6-tert-Butyl-3-cyano-2′-oxo-1′,2′-dihydro-[2,3′]bipyridinyl-4-carboxylic acid (4-methanesulfonylamino-cyclohexyl)-amide] returned a melting point of 208 to 210 °C. The IC50 in series [1] turned out to be 42 nM.

`COC(=O)c1cc(C(C)(C)C)nc(-c2ccc[nH]c2=O)c1C#N` [Compound I-4, 6-tert-Butyl-3-cyano-2′-oxo-1′,2′-dihydro-[2,3′]bipyridinyl-4-carboxylic acid methyl ester] came in with a melting point of 228 to 230 °C. Besides, 5640 nM corresponded to half-maximal inhibition in series [1] (IC50).

For the molecule `CC(C)(C)c1cc(CCc2ccc(NS(C)(=O)=O)cc2)c(C#N)c(-c2ccc[nH]c2=O)n1` [Compound I-6, N-{4-[2-(6-tert-Butyl-3-cyano-2′-oxo-1′,2′-dihydro-[2,3′]bipyridinyl-4-yl)-ethyl]-phenyl}-methanesulfonamide], half-maximal inhibition in series [1] (IC50) required 4 nM.

For the molecule `CC(C)(C)c1cc(CCc2ccc(NS(C)(=O)=O)cc2)c(O)c(-c2ccc[nH]c2=O)n1` [Compound I-3, N-{4-[2-(6-tert-Butyl-3-hydroxy-2′-oxo-1′,2′-dihydro-[2,3′]bipyridinyl-4-yl)-ethyl]-phenyl}-methanesulfonamide], the melting point lay within 123 to 125 °C. In series [1], this molecule came in with an IC50 of 27 nM. In series [2], this molecule showed a concentration for half-maximal inhibition (IC50) of 566 nM.
